Tests used:
green foxtail [1] = test: Test D postemergence; format: in vivo, Setaria viridis; details: for pest or weed control at 31 g/ha / pest or weed control at 62 g/ha / pest or weed control at 125 g/ha / pest or weed control at 250 g/ha / pest or weed control at 16 g/ha: Setaria viridis, post-emergence; for pest or weed control at 31 g/ha / pest or weed control at 62 g/ha / pest or weed control at 125 g/ha / pest or weed control at 250 g/ha: read-out: Plant response rating, Foxtail, Green; for pest or weed control at 16 g/ha: scale 0-100, read-out: Plant response rating, Foxtail, Green
From the text: Seeds of plant species selected from bluegrass (annual bluegrass, Poa annua), blackgrass (Alopecurus myosuroides), canarygrass (littleseed canarygrass, Phalaris minor), chickweed (common chickweed, Stellaria media), galium (catchweed bedstraw, Galium aparine), bromegrass, downy (downy bromegrass, Bromus tectorum), field poppy (Papaver rhoeas), field violet (Viola arvensis), green foxtail (Setaria viridis), deadnettle (henbit deadnettle, Lamium amplexicaule), Italian ryegrass (Lolium multiflorum), kochia (Kochia scoparia), lambsquarters (Chenopodium album), oilseed rape (Brassica napus), pigweed (Amaranthus retroflexus), chamomile (scentless chamomile, Matricaria inodora), Russian thistle (Salsola kali), speedwell (bird's-eye speedwell, Veronica persica), spring barley (Hordeum vulgare), spring wheat (Triticum aestivum), wild buckwheat (Polygonum convolvulus), wild mustard (Sinapis arvensis), wild oat (Avena fatua), wild radish (Raphanus raphanistrum), windgrass (Apera spica-venti), winter barley (Hordeum vulgare), and winter wheat (Triticum aestivum) were planted into a silt loam soil and treated preemergence with test chemicals formulated in a non-phytotoxic solvent mixture which included a surfactant.
At the same time, these species were planted in pots containing Redi-Earth® planting medium (Scotts Company, 14111 Scottslawn Road, Marysville, Ohio 43041) comprising spaghnum peat moss, vermiculite, wetting agent and starter nutrients and treated with postemergence applications of the test chemicals formulated in the same manner. Plants ranged in height from 2 to 18 cm (1- to 4-leaf stage). Treated plants and controls were maintained in a controlled growth environment for 7 to 21 days after which time all species were compared to controls and visually evaluated. Plant response ratings, summarized in Table D, are based on a scale of 0 to 100 where 0 is no effect and 100 is complete control. A dash (-) response means no test result.

surinam grass = test: Test E preemergence; format: in vivo, Brachiaria decumbens; details: for Surinam Grass plant response rating: scale 0 to 100 (0 no effect, 100 complete control)
Method in brief: (§1)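 Test chemicals formulated in a non-phytotoxic solvent mixture containing a surfactant were applied preemergence to seeds in silt loam soil or postemergence to plants at the 1- to 4-leaf stage in potting mix. After 14 to 21 days in a greenhouse, injury was visually rated against controls on a 0-100 scale (0 = no effect, 100 = complete control).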

giant foxtail = test: Test E preemergence; format: in vivo, Setaria faberii; details: for Foxtail, Giant plant response rating: scale 0 to 100 (0 no effect, 100 complete control)
Method in brief: as §1

green foxtail [2] = test: Test E preemergence; format: in vivo, Setaria viridis; details: for Foxtail, Green plant response rating: scale 0 to 100 (0 no effect, 100 complete control)
Method in brief: as §1

johnsongrass = test: Test E preemergence; format: in vivo, Sorghum halepense; details: for Johnsongrass plant response rating: scale 0 to 100 (0 no effect, 100 complete control)
Method in brief: as §1

sandbur = test: Test E preemergence; format: in vivo, Cenchrus echinatus; details: for Sandbur plant response rating: scale 0 to 100 (0 no effect, 100 complete control)
Method in brief: as §1

arrowleaf sida = test: Test E preemergence; format: in vivo, Sida rhombifolia; details: for Arrowleaf Sida plant response rating: scale 0 to 100 (0 no effect, 100 complete control)
Method in brief: as §1

Italian ryegrass = test: Test E preemergence; format: in vivo, Lolium multiflorum; details: for Ryegrass, Italian plant response rating: scale 0 to 100 (0 no effect, 100 complete control)
Method in brief: as §1

ragweed = test: Test A postemergence; format: in vivo, Ambrosia elatior
Method in brief: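 Injury scores run from 0, no effect, to 100, complete control, judged by eye against untreated plants roughly 10 days after treatment. Chemicals carried a surfactant in a non-phytotoxic solvent and went onto loam–sand soil preemergence or onto one- to two-leaf seedlings postemergence.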

[3] = 31 g ai/ha, scale 0 to 100 (0 no effect, 100 complete control)
[4] = 62 g ai/ha, scale 0 to 100 (0 no effect, 100 complete control)
[5] = 125 g ai/ha, scale 0 to 100 (0 no effect, 100 complete control)
[6] = 250 g ai/ha, scale 0 to 100 (0 no effect, 100 complete control)
[7] = 125 g ai/ha, scale 0 to 100, 0 no effect, 100 complete control
[8] = 250 g ai/ha, scale 0 to 100, 0 no effect, 100 complete control
[9] = Preemergence, 62 g ai/ha, scale 0 to 100, 0 no effect, 100 complete control
[10] = preemergence, 125 g ai/ha, scale 0 to 100, 0 no effect, 100 complete control
[11] = 8 g ai/ha, scale 0 to 100, 0 is no effect, 100 is complete control

Row | SMILES | pest or weed control at 31 g/ha (green foxtail [1]; [3]) | pest or weed control at 62 g/ha (green foxtail [1]; [4]) | pest or weed control at 125 g/ha (green foxtail [1]; [5]) | Surinam Grass plant response rating (surinam grass; 31 g ai/ha) | Surinam Grass plant response rating (surinam grass; 62 g ai/ha) | Plant response rating, Surinam Grass (surinam grass; [7]) | Foxtail, Giant plant response rating (giant foxtail; 16 g ai/ha) | Foxtail, Giant plant response rating (giant foxtail; 31 g ai/ha) | Foxtail, Giant plant response rating (giant foxtail; 62 g ai/ha) | Plant response rating, Foxtail, Giant (giant foxtail; [7]) | Foxtail, Green plant response rating (green foxtail [2]; 16 g ai/ha) | Foxtail, Green plant response rating (green foxtail [2]; 31 g ai/ha) | Foxtail, Green plant response rating (green foxtail [2]; 62 g ai/ha) | Plant response rating, Foxtail, Green (green foxtail [2]; [7]) | Johnsongrass plant response rating (johnsongrass; 31 g ai/ha) | Johnsongrass plant response rating (johnsongrass; 62 g ai/ha) | Plant response rating, Johnsongrass (johnsongrass; [7]) | Sandbur plant response rating (sandbur; 31 g ai/ha) | Sandbur plant response rating (sandbur; 62 g ai/ha) | Plant response rating, Sandbur (sandbur; [7]) | further results
1 | N#Cc1cccc(Oc2ncc(Br)cn2)c1-n1cc(C(F)(F)F)cn1 [Compound 59, 3-[(5-bromo-2-pyrimidinyl)oxy]-2-[4-(trifluoromethyl)-1H-pyrazol-1-yl]benzonitrile] | 20% | 35% | 50% | 0 | 5 | 20 | 5 | 10 | 85 | 100 | 0 | 60 | 100 | 100 | 0 | 60 | 75 | 15 | 30 | 50 | pest or weed control at 250 g/ha (green foxtail [1]; [6]): 80%; Surinam Grass plant response rating (surinam grass; 16 g ai/ha): 0; Plant response rating, Surinam Grass (surinam grass; [8]): 65; Plant response rating, Foxtail, Giant (giant foxtail; [8]): 100; Plant response rating, Foxtail, Green (green foxtail [2]; [8]): 100; Johnsongrass plant response rating (johnsongrass; 16 g ai/ha): 0; Plant response rating, Johnsongrass (johnsongrass; [8]): 100; Sandbur plant response rating (sandbur; 16 g ai/ha): 0; Plant response rating, Sandbur (sandbur; [8]): 95; Arrowleaf Sida plant response rating (arrowleaf sida; 16 g ai/ha, preemergence): 50; Arrowleaf Sida plant response rating (arrowleaf sida; 31 g ai/ha, preemergence): 50; Plant response rating, Arrowleaf Sida (arrowleaf sida; [9]): 75; Plant response rating, Arrowleaf Sida (arrowleaf sida; [10]): 100; Plant response rating, Arrowleaf Sida (arrowleaf sida; preemergence, 250 g ai/ha, scale 0 to 100, 0 no effect, 100 complete control): 100; Ryegrass, Italian plant response rating (Italian ryegrass; 16 g ai/ha): 0; Ryegrass, Italian plant response rating (Italian ryegrass; 31 g ai/ha): 0; Ryegrass, Italian plant response rating (Italian ryegrass; 62 g ai/ha): 50; Plant response rating, Ryegrass, Italian (Italian ryegrass; [7]): 75; Plant response rating, Ryegrass, Italian (Italian ryegrass; [8]): 95
2 | Clc1cnc(Oc2ccccc2-n2cc(Br)cn2)nc1 [Compound 7, 2-[2-(4-bromo-1H-pyrazol-1-yl)phenoxy]-5-chloropyrimidine] | 0% | 0% | 10% | 0 | 10 | 35 | 20 | 20 | 40 | 90 | 0 | 30 | 35 | 75 | 0 | 40 | 50 | 0 | 0 | 35 | pest or weed control at 16 g/ha (green foxtail [1]; 16 g ai/ha): 0%; pest or weed control at 250 g/ha (green foxtail [1]; [6]): 20%; Plant response rating, Surinam Grass (surinam grass; [11]): 0; Surinam Grass plant response rating (surinam grass; 16 g ai/ha): 0; Plant response rating, Foxtail, Giant (giant foxtail; [11]): 15; Plant response rating, Foxtail, Green (green foxtail [2]; [11]): 0; Plant response rating, Johnsongrass (johnsongrass; [11]): 0; Johnsongrass plant response rating (johnsongrass; 16 g ai/ha): 0; Plant response rating, Sandbur (sandbur; [11]): 0; Sandbur plant response rating (sandbur; 16 g ai/ha): 0; Plant response rating, Arrowleaf Sida (arrowleaf sida; 8 g ai/ha, preemergence, scale 0 to 100, 0 is no effect, 100 is complete control): 0; Arrowleaf Sida plant response rating (arrowleaf sida; 16 g ai/ha, preemergence): 0; Arrowleaf Sida plant response rating (arrowleaf sida; 31 g ai/ha, preemergence): 25; Plant response rating, Arrowleaf Sida (arrowleaf sida; [9]): 50; Plant response rating, Arrowleaf Sida (arrowleaf sida; [10]): 80; Plant response rating, Ryegrass, Italian (Italian ryegrass; [11]): 0; Ryegrass, Italian plant response rating (Italian ryegrass; 16 g ai/ha): 0; Ryegrass, Italian plant response rating (Italian ryegrass; 31 g ai/ha): 0; Ryegrass, Italian plant response rating (Italian ryegrass; 62 g ai/ha): 0; Plant response rating, Ryegrass, Italian (Italian ryegrass; [7]): 20
3 | FC(F)(F)c1cn(-c2ccccc2Oc2ncc(Cl)cn2)nn1 [Compound 166, 5-chloro-2-[2-[4-(trifluoromethyl)-1H-1,2,3-triazol-1-yl]phenoxy]pyrimidine] | 15% | 20% | 35% | – | – | – | – | – | – | – | – | – | – | – | – | – | – | – | – | – | pest or weed control at 16 g/ha (green foxtail [1]; 16 g ai/ha): 10%
4 | Fc1cccc(Oc2ncc(Cl)cn2)c1-n1cc(Br)cn1 [Compound 178, 2-[2-(4-bromo-1H-pyrazol-1-yl)-3-fluorophenoxy]-5-chloropyrimidine] | 20% | 30% | 35% | – | – | – | – | – | – | – | – | – | – | – | – | – | – | – | – | – | pest or weed control at 16 g/ha (green foxtail [1]; 16 g ai/ha): 15%
5 | N#Cc1cccc(Oc2ncc(Cl)cn2)c1-n1cc(-n2ccc(C(F)(F)F)n2)cn1 [Compound 284] | – | – | – | – | – | – | – | – | – | – | – | – | – | – | – | – | – | – | – | – | Plant response rating, Ragweed (ragweed; 125 g ai/ha, 0 to 100 scale, 0 no effect, 100 complete control): 20; Plant response rating, Ragweed (ragweed; 500 g ai/ha, 0 to 100 scale where 0 is no effect and 100 is complete control): 20; Plant response rating, Foxtail, Green (green foxtail [1]; 31 g ai/ha, scale 0-100): 10; Plant response rating, Foxtail, Green (green foxtail [1]; [4]): 10; Plant response rating, Foxtail, Green (green foxtail [1]; [5]): 50; Plant response rating, Foxtail, Green (green foxtail [1]; [6]): 85
6 | Clc1cnc(Oc2ccccc2-n2cc(Cl)cn2)nc1 [Compound 3] | – | – | – | – | – | – | – | – | – | – | – | – | – | – | – | – | – | – | – | – | Plant response rating, Foxtail, Green (green foxtail [1]; 16 g ai/ha, scale 0-100): 10; Plant response rating, Foxtail, Green (green foxtail [1]; [3]): 0; Plant response rating, Foxtail, Green (green foxtail [1]; [4]): 0; Plant response rating, Foxtail, Green (green foxtail [1]; [5]): 0; Plant response rating, Foxtail, Green (green foxtail [1]; [6]): 10
7 | N#Cc1cnn(-c2c(CF)cccc2Oc2ncc(F)cn2)c1 [Compound 151] | – | – | – | 0 | 35 | 100 | 0 | 25 | 60 | 95 | 20 | 20 | 70 | 75 | 0 | 35 | 70 | 0 | 0 | 35 | Plant response rating, Ragweed (ragweed; 31 g ai/ha, 0 to 100 scale, 0 no effect, 100 complete control): 50; Ragweed plant response rating (ragweed; 125 g ai/ha, 0 to 100 scale where 0 is no effect and 100 is complete control): 100; Arrowleaf Sida plant response rating (arrowleaf sida; 16 g ai/ha, preemergence): 60; Arrowleaf Sida plant response rating (arrowleaf sida; 31 g ai/ha, preemergence): 80; Arrowleaf Sida plant response rating (arrowleaf sida; 62 g ai/ha, preemergence): 100; Plant response rating, Arrowleaf Sida (arrowleaf sida; [10]): 100; Ryegrass, Italian plant response rating (Italian ryegrass; 31 g ai/ha): 10; Ryegrass, Italian plant response rating (Italian ryegrass; 62 g ai/ha): 10; Plant response rating, Ryegrass, Italian (Italian ryegrass; [7]): 65

Reference: patent publication US9695155B2, “Herbicidal substituted pyrimidinyloxy benzene compounds” (E. I. DU PONT DE NEMOURS AND COMPANY, priority 2013, dated 2017)
